Experimental data published in patent publication US20070135997A1, “Methods for analysis of biological dataset profiles” (priority 2003, published 2007).
“Also recorded” adds a separate entry of the source.

Tested on: VCAM-1 expression in human umbilical vein endothelial cells (HUVEC)
Test: Cell-based ELISA of VCAM-1 expression in cytokine-stimulated, gene-transduced endothelial cells
Description: Cytokines, antibodies, and cell culture. Recombinant human IFN-γ, TNF-α, and IL-1βwere from R&D Systems, Murine IgG from Sigma, Mouse anti-human ICAM-1 (clone B4H10) from Beckman Coulter and mouse anti-human E-selectin (clone ENA1) from HyCult Biotechnology. Unconjugated mouse antibodies against human VCAM-1 (clone 51-10C9), CD31 (clone WM-59), HLA-DR (clone G46-6), MIG (clone B8-77), and MCP-1 (clone 5D3-F7) were from BD Biosciences. Mouse anti-human IL-8 (clone 6217.111) was from R&D Systems. PD098059 was from Calbiochem. EGM-2 medium and required supplements were from Clonetics. Human umbilical vein endothelial cells (HUVEC) were from Clonetics; cultured in microtiter plates in EGM-2 medium containing manufacturer's supplements plus 2% heat-inactivated fetal bovine serum. […] PD098059 (3.7 μM final concentration) was added 1 hr before stimulation and was present during the whole 24 hr stimulation period.
Cell-based ELISAs. Cell-based ELISAs were carried out as previously described. Briefly, microtiter plates containing treated and stimulated HUVEC were blocked, and then incubated with primary antibodies or isotype control antibodies (0.01-0.5 μg/ml) for 1 hr. After washing, plates were then incubated with a peroxidase-conjugated anti-mouse IgG secondary antibody (Promega) for 1 hr. Plates were washed and developed with TMB substrate (Clinical Science Products) and the optical density (OD) was read at 450 nm (subtracting the background absorbance at 650 nm) on a SpectraMAX 190 plate reader (Molecular Devices).
Retroviral gene transduction. Test genes were cloned into a vector derived from the MoMLV-based vector pFB (Stratagene) downstream of the MoMLV LTR. A truncated form of the human nerve growth factor receptor (NGFR) preceded by an internal ribosomal entry site was used as a marker gene. Retroviral vector plasmid DNA was transfected into AmphoPack-293 cells (Clontech) by a modified calcium phosphate method according to the manufacturer's protocol (MBS transfection kit, Stratagene). Cell supernatants were harvested 48 hours post-transfection, filtered to remove cell debris (0.45 μm), and transferred onto exponentially growing HUVEC. DEAE dextran (10 μg/ml) was added to facilitate transduction. After 5-8 hr, the viral supernatant was removed and cells were cultured for an additional 40 hours. Gene transfer efficiency was determined by flow cytometric analysis using an NGFR-specific monoclonal antibody and was typically ≧70%.

Molecule | Effect on VCAM-1 expression when the RAS/MAPK pathway is activated (HUVEC over-expressing MYD88, RAS*, MEK1* or MEK2* or IL-1β-stimulated, PD098059 3.7 μM added 1 hr before 24 hr cytokine stimulation) | Effect on VCAM-1 expression in TNF-α-treated cells (HUVEC treated with TNF-α, PD098059 3.7 μM added 1 hr before 24 hr stimulation) | Effect of IL-1β on TNF-induced VCAM-1 expression (HUVEC stimulated with 10 ng/ml TNF + 1 ng/ml IL-1) | Effect of IL-1β on TNF-induced VCAM-1 expression (HUVEC stimulated with 10 ng/ml TNF + 1 ng/ml IL-1, listed as IL-1)
COc1cccc(-c2cc(=O)c3ccccc3o2)c1N [PD098059] | reversed the effect of MYD88 or RAS* over-expression; also recorded: increases VCAM-1 expression | no effect |  | 
IL-1β: Recombinant human IL-1β from R&D Systems, pro-inflammatory cytokine |  |  | reduce the level of VCAM-1 expression | modulates the VCAM-1 expression induced by TNF
